Measured values taken from the NIST ThermoML archive (doi:10.1021/je500669y).
Numbers after ± are expanded uncertainties.

Assay: xn = mol fraction of the nth substance listed
Conditions: Gas, isochoric method

Work on `F/C=C/C(F)(F)F` [trans-1,3,3,3-tetrafluoropropene] + C yielded a specific volume (263.12 K, 541.7 kPa, x2 = 0.747) of 0.092 ± 0.01 m3/kg, a specific volume (273.11 K, 305.7 kPa, x2 = 0.513) of 0.113 ± 0.01 m3/kg and a specific volume (273.14 K, 216.8 kPa, x2 = 0.31) of 0.12 ± 0.01 m3/kg. It also gave a specific volume (273.19 K, 565.7 kPa, x2 = 0.747) of 0.092 ± 0.01 m3/kg, a specific volume (283.07 K, 225.4 kPa, x2 = 0.31) of 0.12 ± 0.01 m3/kg and a specific volume (283.29 K, 1326.6 kPa, x2 = 0.748) of 0.041 ± 0.01 m3/kg. The specific volume (283.3 K, 588.9 kPa, x2 = 0.747) was 0.092 ± 0.01 m3/kg, the specific volume (283.38 K, 319 kPa, x2 = 0.513) was 0.113 ± 0.01 m3/kg and the specific volume (288.33 K, 665.7 kPa, x2 = 0.496) was 0.051 ± 0.01 m3/kg. For the same compound, the specific volume (293.03 K, 233.9 kPa, x2 = 0.31) was 0.12 ± 0.01 m3/kg, the specific volume (293.03 K, 611.2 kPa, x2 = 0.747) was 0.092 ± 0.01 m3/kg and the specific volume (293.06 K, 330.6 kPa, x2 = 0.513) was 0.113 ± 0.01 m3/kg. The specific volume (293.17 K, 1381 kPa, x2 = 0.748) was 0.041 ± 0.01 m3/kg, the specific volume (293.26 K, 456.1 kPa, x2 = 0.251) was 0.056 ± 0.01 m3/kg and the specific volume (293.33 K, 681.4 kPa, x2 = 0.496) was 0.051 ± 0.01 m3/kg. For the same compound, the specific volume (303.15 K, 474.1 kPa, x2 = 0.251) was 0.056 ± 0.01 m3/kg, the specific volume (303.16 K, 242.4 kPa, x2 = 0.31) was 0.12 ± 0.01 m3/kg and the specific volume (303.16 K, 711.2 kPa, x2 = 0.496) was 0.051 ± 0.01 m3/kg. The specific volume (303.16 K, 1435.1 kPa, x2 = 0.748) was 0.041 ± 0.01 m3/kg, the specific volume (303.22 K, 634.1 kPa, x2 = 0.747) was 0.092 ± 0.01 m3/kg and the specific volume (303.23 K, 342.7 kPa, x2 = 0.513) was 0.113 ± 0.01 m3/kg. It also gave a specific volume (313.15 K, 251 kPa, x2 = 0.31) of 0.121 ± 0.01 m3/kg, a specific volume (313.15 K, 995.8 kPa, x2 = 0.261) of 0.026 ± 0.01 m3/kg and a specific volume (313.19 K, 354.4 kPa, x2 = 0.513) of 0.113 ± 0.01 m3/kg. It also gave a specific volume (313.2 K, 1488.8 kPa, x2 = 0.748) of 0.041 ± 0.01 m3/kg, a specific volume (313.22 K, 1512.1 kPa, x2 = 0.513) of 0.024 ± 0.01 m3/kg and a specific volume (313.23 K, 657.6 kPa, x2 = 0.747) of 0.092 ± 0.01 m3/kg. It also gave a specific volume (313.24 K, 738.5 kPa, x2 = 0.496) of 0.051 ± 0.01 m3/kg, a specific volume (323.17 K, 259 kPa, x2 = 0.31) of 0.121 ± 0.01 m3/kg and a specific volume (323.17 K, 510.4 kPa, x2 = 0.251) of 0.056 ± 0.01 m3/kg. The specific volume (323.19 K, 366.1 kPa, x2 = 0.513) was 0.113 ± 0.01 m3/kg, the specific volume (323.19 K, 765.2 kPa, x2 = 0.496) was 0.051 ± 0.01 m3/kg and the specific volume (323.21 K, 1040.8 kPa, x2 = 0.261) was 0.026 ± 0.01 m3/kg. The specific volume (323.27 K, 1573.2 kPa, x2 = 0.513) was 0.024 ± 0.01 m3/kg, the specific volume (323.29 K, 1542.4 kPa, x2 = 0.748) was 0.041 ± 0.01 m3/kg and the specific volume (323.35 K, 680.5 kPa, x2 = 0.747) was 0.092 ± 0.01 m3/kg. It also gave a specific volume (333.18 K, 1636.8 kPa, x2 = 0.513) of 0.024 ± 0.01 m3/kg, a specific volume (333.2 K, 702.6 kPa, x2 = 0.747) of 0.092 ± 0.01 m3/kg and a specific volume (333.2 K, 792 kPa, x2 = 0.496) of 0.051 ± 0.01 m3/kg. For the same compound, the specific volume (333.25 K, 378.1 kPa, x2 = 0.513) was 0.113 ± 0.01 m3/kg, the specific volume (333.25 K, 1083.7 kPa, x2 = 0.261) was 0.026 ± 0.01 m3/kg and the specific volume (333.25 K, 1595.7 kPa, x2 = 0.748) was 0.041 ± 0.01 m3/kg. The specific volume (333.27 K, 267.5 kPa, x2 = 0.31) was 0.121 ± 0.01 m3/kg, the specific volume (343.11 K, 546.9 kPa, x2 = 0.251) was 0.056 ± 0.01 m3/kg and the specific volume (343.12 K, 1126.5 kPa, x2 = 0.261) was 0.026 ± 0.01 m3/kg. The specific volume (343.16 K, 389.7 kPa, x2 = 0.513) was 0.113 ± 0.01 m3/kg, the specific volume (343.18 K, 275.8 kPa, x2 = 0.31) was 0.121 ± 0.01 m3/kg and the specific volume (343.23 K, 818.7 kPa, x2 = 0.496) was 0.051 ± 0.01 m3/kg. The specific volume (343.23 K, 1648.5 kPa, x2 = 0.748) was 0.041 ± 0.01 m3/kg, the specific volume (343.25 K, 725.3 kPa, x2 = 0.747) was 0.092 ± 0.01 m3/kg and the specific volume (343.34 K, 1700.6 kPa, x2 = 0.513) was 0.024 ± 0.01 m3/kg. The specific volume (353.15 K, 747.4 kPa, x2 = 0.747) was 0.092 ± 0.01 m3/kg, the specific volume (353.17 K, 284.2 kPa, x2 = 0.31) was 0.121 ± 0.01 m3/kg and the specific volume (353.22 K, 401.5 kPa, x2 = 0.513) was 0.113 ± 0.01 m3/kg. For the same compound, the specific volume (353.23 K, 1167.7 kPa, x2 = 0.261) was 0.026 ± 0.01 m3/kg, the specific volume (353.23 K, 1701.4 kPa, x2 = 0.748) was 0.041 ± 0.01 m3/kg and the specific volume (353.24 K, 845 kPa, x2 = 0.496) was 0.051 ± 0.01 m3/kg. For the same compound, the specific volume (353.34 K, 1759 kPa, x2 = 0.513) was 0.024 ± 0.01 m3/kg, the specific volume (363.15 K, 292.6 kPa, x2 = 0.31) was 0.121 ± 0.01 m3/kg and the specific volume (363.16 K, 1209.5 kPa, x2 = 0.261) was 0.026 ± 0.01 m3/kg. The specific volume (363.19 K, 1820.5 kPa, x2 = 0.513) was 0.024 ± 0.01 m3/kg, the specific volume (363.21 K, 770.2 kPa, x2 = 0.747) was 0.092 ± 0.01 m3/kg and the specific volume (363.24 K, 413.1 kPa, x2 = 0.513) was 0.114 ± 0.01 m3/kg. It also gave a specific volume (363.25 K, 871.2 kPa, x2 = 0.496) of 0.051 ± 0.01 m3/kg, a specific volume (363.28 K, 1754.1 kPa, x2 = 0.748) of 0.041 ± 0.01 m3/kg and a specific volume (373.1 K, 424.6 kPa, x2 = 0.513) of 0.114 ± 0.01 m3/kg. The specific volume (373.1 K, 1251.1 kPa, x2 = 0.261) was 0.026 ± 0.01 m3/kg, the specific volume (373.11 K, 1881.5 kPa, x2 = 0.513) was 0.024 ± 0.01 m3/kg and the specific volume (373.2 K, 301 kPa, x2 = 0.31) was 0.121 ± 0.01 m3/kg. The specific volume (373.23 K, 600.7 kPa, x2 = 0.251) was 0.056 ± 0.01 m3/kg, the specific volume (373.23 K, 897.8 kPa, x2 = 0.496) was 0.051 ± 0.01 m3/kg and the specific volume (373.27 K, 792.6 kPa, x2 = 0.747) was 0.092 ± 0.01 m3/kg. For the same compound, the specific volume (373.27 K, 1806.6 kPa, x2 = 0.748) was 0.041 ± 0.01 m3/kg, the specific volume (383.17 K, 1940.6 kPa, x2 = 0.513) was 0.025 ± 0.01 m3/kg and the specific volume (383.18 K, 1291.3 kPa, x2 = 0.261) was 0.026 ± 0.01 m3/kg. It also gave a specific volume (383.25 K, 815 kPa, x2 = 0.747) of 0.092 ± 0.01 m3/kg, a specific volume (383.28 K, 309.5 kPa, x2 = 0.31) of 0.121 ± 0.01 m3/kg and a specific volume (383.3 K, 437 kPa, x2 = 0.513) of 0.114 ± 0.01 m3/kg. For the same compound, the specific volume (383.31 K, 1859.5 kPa, x2 = 0.748) was 0.041 ± 0.01 m3/kg, the specific volume (383.33 K, 924.1 kPa, x2 = 0.496) was 0.051 ± 0.01 m3/kg and the specific volume (393.06 K, 1327 kPa, x2 = 0.261) was 0.026 ± 0.01 m3/kg. For the same compound, the specific volume (393.1 K, 2000.7 kPa, x2 = 0.513) was 0.025 ± 0.01 m3/kg, the specific volume (393.13 K, 317.8 kPa, x2 = 0.31) was 0.121 ± 0.01 m3/kg and the specific volume (393.14 K, 837.2 kPa, x2 = 0.747) was 0.092 ± 0.01 m3/kg. For the same compound, the specific volume (393.22 K, 448.6 kPa, x2 = 0.513) was 0.114 ± 0.01 m3/kg, the specific volume (393.32 K, 950.3 kPa, x2 = 0.496) was 0.051 ± 0.01 m3/kg and the specific volume (393.33 K, 1911.9 kPa, x2 = 0.748) was 0.041 ± 0.01 m3/kg. The specific volume (403.03 K, 2059.7 kPa, x2 = 0.513) was 0.025 ± 0.01 m3/kg, the specific volume (403.12 K, 1366.9 kPa, x2 = 0.261) was 0.026 ± 0.01 m3/kg and the specific volume (403.17 K, 460.3 kPa, x2 = 0.513) was 0.114 ± 0.01 m3/kg. For the same compound, the specific volume (403.18 K, 326.4 kPa, x2 = 0.31) was 0.121 ± 0.01 m3/kg, the specific volume (403.21 K, 860 kPa, x2 = 0.747) was 0.092 ± 0.01 m3/kg and the specific volume (403.26 K, 1963.8 kPa, x2 = 0.748) was 0.041 ± 0.01 m3/kg. The specific volume (403.27 K, 976.2 kPa, x2 = 0.496) was 0.051 ± 0.01 m3/kg, the specific volume (412.96 K, 2117.2 kPa, x2 = 0.513) was 0.025 ± 0.01 m3/kg and the specific volume (413.15 K, 1405.5 kPa, x2 = 0.261) was 0.026 ± 0.01 m3/kg. For the same compound, the specific volume (413.18 K, 472 kPa, x2 = 0.513) was 0.114 ± 0.01 m3/kg, the specific volume (413.23 K, 881.9 kPa, x2 = 0.747) was 0.092 ± 0.01 m3/kg and the specific volume (413.29 K, 2016 kPa, x2 = 0.748) was 0.041 ± 0.01 m3/kg. The specific volume (413.3 K, 1002.5 kPa, x2 = 0.496) was 0.052 ± 0.01 m3/kg, the specific volume (413.34 K, 334.9 kPa, x2 = 0.31) was 0.121 ± 0.01 m3/kg and the specific volume (413.38 K, 671.6 kPa, x2 = 0.251) was 0.056 ± 0.01 m3/kg.
